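Five compound concentrations were applied to cells in 96-well plates for 48 hours; endpoints were derived by simple linear interpolation of the resulting dose-response curve. TGI marks complete inhibition of growth.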
Legend:
Assay in all cases: NCI anticancer screen, dose series, 48 h
A498 renal = test system: A498 renal
KM12 colon = test system: KM12 colon
MDA-MB-231 breast = test system: MDA-MB-231 breast
NCI-H460 lung = test system: NCI-H460 lung
NCI/ADR-RES ovarian = test system: NCI/ADR-RES ovarian
OVCAR-4 ovarian = test system: OVCAR-4 ovarian
SNB-19 CNS = test system: SNB-19 CNS
SNB-75 CNS = test system: SNB-75 CNS
T-47D breast = test system: T-47D breast
U251 CNS = test system: U251 CNS
UACC-257 melanoma = test system: UACC-257 melanoma

Row | Compound | TGI (A498 renal) [µM] | TGI (KM12 colon) [µM] | TGI (MDA-MB-231 breast) [µM] | TGI (NCI-H460 lung) [µM] | TGI (NCI/ADR-RES ovarian) [µM] | TGI (OVCAR-4 ovarian) [µM] | TGI (SNB-19 CNS) [µM] | TGI (SNB-75 CNS) [µM] | TGI (T-47D breast) [µM] | TGI (U251 CNS) [µM] | TGI (UACC-257 melanoma) [µM]
1 | O=Nc1c(O)cc(Nc2cccnc2)c2ccccc12 | > 100 | 90.6 | 47.3 | > 100 | 65.1 | > 100 | 8.39 | > 100 | > 100 | > 100 | > 100
2 | O=C(N/N=C/C=C/c1ccc([N+](=O)[O-])o1)c1ccc(C(=O)N/N=C/C=C/c2ccc([N+](=O)[O-])o2)cc1 | > 100 | > 100 | 97.3 | > 88.5 | > 92.8 | > 100 | > 100 | > 100 | > 69.2 | > 52.8 | > 30
3 | COC1/C=C/C(C)C(C(C)C(OC)C(C)CCC(=O)C(C)C(CC(=O)O)OC)OC(=O)/C=C/C=C(\C)CC(OC)CC2=CC(=O)O[C@H](C2)C(C)C(OC)CC(OC)/C=C/C(C)C(OC)C1 (some centres not stated) | 2.17 | > 4.35 | > 4.35 | > 4.35 | > 4.35 | > 4.35 | > 4.35 | 0.0426 | > 4.35 | > 4.35 | > 4.35
4 | CSc1c(C#N)c(S)[nH]c(=O)c1C#N | 98 | > 100 | > 100 | > 100 | > 100 | > 100 | > 100 | > 100 | > 100 | > 100 | > 100
5 | Clc1c2ccccc2nc2c1[nH]c1ccccc12 | > 100 | 22.2 | 46.7 | > 100 | 89.7 | > 100 | > 100 | > 100 | > 100 | > 100 | > 100
6 | S=C(N1CCN(c2ccccc2)CC1)N1CCN(c2ccccc2)CC1 | > 100 | > 100 | > 100 | > 100 | > 100 | > 100 | > 100 | > 100 | > 100 | > 100 | > 100
7 | COC1CC(O[C@H]2CC[C@@]3(C)[C@@H](CC[C@]4(O)[C@@H]3CC[C@]3(C)[C@@H](C(C)=O)[C@H](OC(=O)CC(C)C)[C@@H](OC(=O)c5ccccc5)[C@@]34O)C2)OC(C)C1OC1CC(OC)C(OC2OC(C)C(O)C(OC)C2O)C(C)O1 (some centres not stated) | > 25 | > 25 | > 25 | > 25 | > 25 | > 25 | > 25 | > 25 | > 25 | > 25 | > 25
8 | COC(=O)C1=C(CCC[C@H](C)O[Si](C)(C)C(C)(C)C)NC(=O)N2[C@@H](CCO)CC[C@H]12 | 31.1 | 51.2 | 31.9 | 47.4 | 29.1 | 38.2 | 29 | 30.5 | 32.9 | 29.6 | 28.9
9 | C#CC1NC(=O)C1N(CC)CC (configuration not stated) | > 100 | > 100 | > 100 | > 100 | > 100 | > 100 | > 100 | > 100 | > 100 | > 100 | > 100
10 | O=C1C(S(=O)(=O)c2ccccc2)=C(CS(=O)(=O)c2ccccc2)[C@@H](OCc2ccccc2)[C@@H]1OCc1ccccc1 | 57.3 | 27.4 | 60 | 50.5 | 54.4 | 57.8 | > 100 | > 100 | > 100 | 53.3 | 66.3
11 | N/C(=N\S(=O)(=O)c1cc(Cl)c(Oc2ccc([N+](=O)[O-])cc2Cl)c(Cl)c1)Nc1ccc(Cl)cc1 | 29.4 | 36.6 | 32.9 | 40.1 | 35.3 | 30.4 | 33.6 | 35.2 | 34.2 | 29.6 | 32.8
12 | Nc1nc(=S)n(-c2ccc(Cl)cc2)c2nc3ccccc3cc12 | > 100 | > 100 | > 100 | > 100 | > 100 | > 100 | > 100 | 97 | > 100 | > 100 | > 100
13 | CC1(C)C2CCC(O)(C2)C1N (configuration not stated) | > 100 | > 100 | > 100 | > 100 | > 100 | > 100 | > 100 | > 100 | > 100 | > 100 | > 100
14 | CCCCCCCCC/C=C1/CC(CO)(COC(=O)c2ccccc2)OC1=O (configuration not stated) | 26.4 | 30.6 | 26.3 | 22 | 28.8 | 26.5 | 29.1 | 22.1 | 25.1 | 27.1 | 27.4
15 | CC1=NN(c2nc(N)nc(/C(C#N)=C\c3cccc([N+](=O)[O-])c3)n2)C(C)(C)C1 | > 37 | > 48.1 | 25.1 | 19.7 | > 66.7 | > 60.9 | 88.5 | 30.9 | 64.8 | 38.4 | 49.3
16 | O=C1O/C(=C\c2ccc(O)cc2)C(c2ccc(O)c(Cl)c2)=C1Cl | > 100 | > 100 | > 100 | > 100 | 97.6 | > 100 | > 100 | > 100 | > 100 | > 100 | > 100
17 | CCCNC(=O)N1CC(CN2CCN(c3ccccc3)CC2)O/C1=N/C(=O)Nc1ccccc1 (configuration not stated) | > 100 | > 100 | > 100 | > 100 | > 100 | > 100 | > 100 | > 100 | > 100 | > 100 | > 100
